According to paper PMC5407854, “Inhibitor of ppGalNAc-T3-mediated O-glycosylation blocks cancer cell invasiveness and lowers FGF23 levels” (eLife, 2017):

T1: ppGalNAc-T3 (Homo sapiens, UniProt Q14435)
T1 construct: gene GALNT3; purified lumenal domain (containing catalytic and lectin domains)
T1 sequence (Q14435 38-633 limits assumed): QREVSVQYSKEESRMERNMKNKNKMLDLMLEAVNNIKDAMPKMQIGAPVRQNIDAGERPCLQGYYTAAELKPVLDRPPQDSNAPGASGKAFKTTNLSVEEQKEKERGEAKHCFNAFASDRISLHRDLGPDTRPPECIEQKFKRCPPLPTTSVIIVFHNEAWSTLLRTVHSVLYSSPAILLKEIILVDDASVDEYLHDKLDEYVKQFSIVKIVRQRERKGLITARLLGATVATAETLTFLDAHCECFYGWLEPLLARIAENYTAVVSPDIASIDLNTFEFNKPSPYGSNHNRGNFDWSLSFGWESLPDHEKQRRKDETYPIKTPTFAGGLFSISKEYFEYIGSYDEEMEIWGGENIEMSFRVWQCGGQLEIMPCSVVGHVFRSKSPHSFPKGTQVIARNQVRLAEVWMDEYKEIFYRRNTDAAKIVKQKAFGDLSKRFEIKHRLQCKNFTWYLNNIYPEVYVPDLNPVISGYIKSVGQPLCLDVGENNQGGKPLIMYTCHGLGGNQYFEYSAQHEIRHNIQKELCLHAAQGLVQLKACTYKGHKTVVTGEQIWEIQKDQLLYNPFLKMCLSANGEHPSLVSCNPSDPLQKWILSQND


Legend:
[1] = target: T1, ppGalNAc-T3; assay: intrinsic tryptophan fluorescence quenching; also UDP-Glo inhibition of purified enzyme (IC50 […]); type: binding
[2] = anti-FLAG immunoblot of cell lysates, with or without chloroquine; settings: glycan lost; control: untreated

| Kd [1] | Molecule | expression_or_secretion [2] |
| --- | --- | --- |
| ~17 µM | O=C(Nc1ccc(Nc2ccncc2)cc1)c1ccc(Nc2ccnc3ccc([N+](=O)[O-])cc23)cc1 [compound 1614, T3Inh-1] |  |
|  | FGF23: T3Inh-1 (protein) parent chain: MLGARLRLWVCALCSVCSMSVLRAYPNASPLLGSSWGGLIHLYTATARNSYHLQIHKNGHVDGAPHQTIYSALMIRSEDAGFVVITGVMSRRYLCMDFRGNIFGSHYFDPENCRFQHQTLENGYDVYHSPQYHFLVSLGRAKRAFLPGMNPPPYSQFLSRRNEIPLIHFNTPIPRRHTRSAEDDSERDPLNVLKPRARMTPAPASCSQELPSAEDNSPMASDPLGVVRGGRVNTHAGGTGPEGCRPFAKFI | no change |
